According to ChEMBL document CHEMBL1201862, “PubChem BioAssay data set” (2004):
Activity calls are given as the source filed them.

How the values were obtained:
Albumin = Albumin (Bos taurus, UniProt P02769); experiment: Counterscreen for inhibitors of T-cell receptor (TCR)-CD3 interaction: Fluorescence-based biochemical high throughput dose response assay to identify inhibitors of T-cell receptor (TCR)-CD3 interaction using a TAMRA-labeled BSA probe.; type: functional
[1] = molecular target: Peroxisome proliferator-activated receptor gamma/Nuclear receptor coactivator 3 (Homo sapiens, UniProt P37231); type: functional;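 also: agonist potency for raising coactivator recruitment to the receptor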
[2] = molecular target: Peroxisome proliferator-activated receptor gamma/Nuclear receptor coactivator 1 (Homo sapiens, UniProt P37231); type: functional;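 also: agonist potency as compounds enhance coactivator SRC-1 recruitment to PPARgamma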
Peroxisome proliferator-activated receptor gamma/Nuclear receptor coactivator 1, sequence (P37231 whole entry): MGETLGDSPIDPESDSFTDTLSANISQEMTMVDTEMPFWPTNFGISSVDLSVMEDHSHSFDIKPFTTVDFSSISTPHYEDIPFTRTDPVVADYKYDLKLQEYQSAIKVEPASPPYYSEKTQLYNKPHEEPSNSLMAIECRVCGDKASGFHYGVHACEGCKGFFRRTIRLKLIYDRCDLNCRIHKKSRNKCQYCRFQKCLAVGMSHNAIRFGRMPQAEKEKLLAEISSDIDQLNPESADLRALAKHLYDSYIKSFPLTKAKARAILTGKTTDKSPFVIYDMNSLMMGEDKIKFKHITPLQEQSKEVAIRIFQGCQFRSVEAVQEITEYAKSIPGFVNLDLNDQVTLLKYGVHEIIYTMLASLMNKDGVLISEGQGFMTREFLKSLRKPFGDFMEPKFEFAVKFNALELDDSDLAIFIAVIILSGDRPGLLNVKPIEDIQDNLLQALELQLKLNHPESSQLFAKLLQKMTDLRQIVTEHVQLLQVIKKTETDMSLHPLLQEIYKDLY
Peroxisome proliferator-activated receptor gamma/Nuclear receptor coactivator 1, sequence (Q15788 whole entry, further chain): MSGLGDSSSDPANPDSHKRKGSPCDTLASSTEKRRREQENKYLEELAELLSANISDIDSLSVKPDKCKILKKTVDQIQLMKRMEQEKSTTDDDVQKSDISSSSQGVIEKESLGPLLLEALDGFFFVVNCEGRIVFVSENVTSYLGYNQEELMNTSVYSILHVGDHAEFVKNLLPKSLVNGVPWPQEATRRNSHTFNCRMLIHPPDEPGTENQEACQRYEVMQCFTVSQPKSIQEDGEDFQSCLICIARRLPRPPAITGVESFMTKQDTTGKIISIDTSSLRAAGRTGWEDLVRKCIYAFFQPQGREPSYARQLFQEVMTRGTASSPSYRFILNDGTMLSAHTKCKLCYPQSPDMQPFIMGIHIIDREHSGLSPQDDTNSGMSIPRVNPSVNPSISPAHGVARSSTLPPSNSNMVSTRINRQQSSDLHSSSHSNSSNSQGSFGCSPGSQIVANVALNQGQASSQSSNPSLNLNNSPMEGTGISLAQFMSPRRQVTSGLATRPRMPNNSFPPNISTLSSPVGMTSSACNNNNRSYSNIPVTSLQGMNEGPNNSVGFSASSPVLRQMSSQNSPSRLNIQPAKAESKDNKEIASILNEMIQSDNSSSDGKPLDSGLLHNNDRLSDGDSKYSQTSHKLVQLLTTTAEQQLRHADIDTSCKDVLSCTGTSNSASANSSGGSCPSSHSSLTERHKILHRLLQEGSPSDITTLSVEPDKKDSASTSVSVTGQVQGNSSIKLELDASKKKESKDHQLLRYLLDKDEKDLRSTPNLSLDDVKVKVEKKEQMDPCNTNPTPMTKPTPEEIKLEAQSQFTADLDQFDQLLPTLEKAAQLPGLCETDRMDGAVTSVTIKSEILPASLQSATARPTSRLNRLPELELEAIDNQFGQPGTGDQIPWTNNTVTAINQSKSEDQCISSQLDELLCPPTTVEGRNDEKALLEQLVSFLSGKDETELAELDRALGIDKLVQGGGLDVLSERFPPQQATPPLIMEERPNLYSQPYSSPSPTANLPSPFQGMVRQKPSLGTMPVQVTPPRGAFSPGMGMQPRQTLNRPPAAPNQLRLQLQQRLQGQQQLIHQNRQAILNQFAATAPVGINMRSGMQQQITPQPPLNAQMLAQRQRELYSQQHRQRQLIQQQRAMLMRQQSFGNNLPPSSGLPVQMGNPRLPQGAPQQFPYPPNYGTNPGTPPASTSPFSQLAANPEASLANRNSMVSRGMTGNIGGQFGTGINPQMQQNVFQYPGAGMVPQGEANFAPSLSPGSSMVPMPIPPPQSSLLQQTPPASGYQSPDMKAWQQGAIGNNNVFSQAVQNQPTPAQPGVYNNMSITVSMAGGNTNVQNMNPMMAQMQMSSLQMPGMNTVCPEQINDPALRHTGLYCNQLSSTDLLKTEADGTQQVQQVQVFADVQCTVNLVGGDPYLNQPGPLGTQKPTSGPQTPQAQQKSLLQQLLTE

[3] = molecular target: Peroxisome proliferator-activated receptor gamma/Nuclear receptor coactivator 2 (Homo sapiens, UniProt P37231); type: functional;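 also: agonist potency for raising coactivator recruitment to the receptor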
Peroxisome proliferator-activated receptor gamma/Nuclear receptor coactivator 2, sequence (P37231 whole entry): as the sequence (P37231 whole entry) above
Peroxisome proliferator-activated receptor gamma/Nuclear receptor coactivator 2, sequence (Q15596 whole entry, further chain): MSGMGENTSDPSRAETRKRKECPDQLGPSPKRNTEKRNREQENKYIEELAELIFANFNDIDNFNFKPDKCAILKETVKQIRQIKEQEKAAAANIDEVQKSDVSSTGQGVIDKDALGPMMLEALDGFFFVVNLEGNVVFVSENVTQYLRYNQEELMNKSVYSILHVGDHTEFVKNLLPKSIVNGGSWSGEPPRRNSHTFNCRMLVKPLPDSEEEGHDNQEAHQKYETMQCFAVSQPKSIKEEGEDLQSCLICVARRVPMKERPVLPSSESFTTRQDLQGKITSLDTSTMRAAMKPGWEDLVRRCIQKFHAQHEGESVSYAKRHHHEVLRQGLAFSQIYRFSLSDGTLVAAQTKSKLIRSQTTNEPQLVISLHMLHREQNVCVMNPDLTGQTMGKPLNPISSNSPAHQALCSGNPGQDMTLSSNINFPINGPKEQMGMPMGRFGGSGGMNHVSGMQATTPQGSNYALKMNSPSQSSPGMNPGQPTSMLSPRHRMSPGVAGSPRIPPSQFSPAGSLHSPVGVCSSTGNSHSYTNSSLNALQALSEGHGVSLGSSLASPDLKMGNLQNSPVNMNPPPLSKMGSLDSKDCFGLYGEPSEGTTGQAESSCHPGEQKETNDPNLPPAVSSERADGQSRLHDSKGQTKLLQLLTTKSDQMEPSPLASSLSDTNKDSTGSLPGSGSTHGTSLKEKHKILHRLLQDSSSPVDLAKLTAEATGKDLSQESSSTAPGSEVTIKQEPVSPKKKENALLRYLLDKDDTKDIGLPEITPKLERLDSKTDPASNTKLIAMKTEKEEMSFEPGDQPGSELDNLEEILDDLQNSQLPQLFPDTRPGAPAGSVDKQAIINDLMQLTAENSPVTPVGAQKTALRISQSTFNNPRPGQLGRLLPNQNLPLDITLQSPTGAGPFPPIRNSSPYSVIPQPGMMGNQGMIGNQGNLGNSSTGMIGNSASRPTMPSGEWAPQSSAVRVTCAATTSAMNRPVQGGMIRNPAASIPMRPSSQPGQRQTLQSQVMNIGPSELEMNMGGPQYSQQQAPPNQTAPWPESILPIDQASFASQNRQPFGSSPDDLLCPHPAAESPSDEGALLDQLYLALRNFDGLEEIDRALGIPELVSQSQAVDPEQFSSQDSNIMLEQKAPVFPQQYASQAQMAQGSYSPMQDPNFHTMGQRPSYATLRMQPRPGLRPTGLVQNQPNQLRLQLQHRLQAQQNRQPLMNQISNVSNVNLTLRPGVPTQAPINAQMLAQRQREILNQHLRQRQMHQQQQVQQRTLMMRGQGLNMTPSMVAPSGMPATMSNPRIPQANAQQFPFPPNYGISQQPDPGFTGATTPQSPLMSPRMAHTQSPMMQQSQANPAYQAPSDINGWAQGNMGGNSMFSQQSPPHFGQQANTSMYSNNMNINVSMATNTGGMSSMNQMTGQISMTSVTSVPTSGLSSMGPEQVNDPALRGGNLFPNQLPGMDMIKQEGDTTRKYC

[4] = cytotoxicity in HPDE-C7 cells, cell-based, fluorescence, HTS (AID 430); type: functional; conditions: Homo sapiens
[5] = cytotoxicity in KRAS-transformed pancreatic duct cells, primary screen, cell-based, fluorescence, HTS (AID 431); type: functional; conditions: Homo sapiens;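 also: cell line used: HPDE-C7K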
[6] = molecular target: T1, Zinc finger protein mex-5 (Caenorhabditis elegans, UniProt Q9XUB2); experiment: MEX-5/TCR-2 RNA interaction inhibitors, dose response, biochemical, C. elegans, fluorescence polarization (AID 1960)
T1 sequence (Q9XUB2 whole entry): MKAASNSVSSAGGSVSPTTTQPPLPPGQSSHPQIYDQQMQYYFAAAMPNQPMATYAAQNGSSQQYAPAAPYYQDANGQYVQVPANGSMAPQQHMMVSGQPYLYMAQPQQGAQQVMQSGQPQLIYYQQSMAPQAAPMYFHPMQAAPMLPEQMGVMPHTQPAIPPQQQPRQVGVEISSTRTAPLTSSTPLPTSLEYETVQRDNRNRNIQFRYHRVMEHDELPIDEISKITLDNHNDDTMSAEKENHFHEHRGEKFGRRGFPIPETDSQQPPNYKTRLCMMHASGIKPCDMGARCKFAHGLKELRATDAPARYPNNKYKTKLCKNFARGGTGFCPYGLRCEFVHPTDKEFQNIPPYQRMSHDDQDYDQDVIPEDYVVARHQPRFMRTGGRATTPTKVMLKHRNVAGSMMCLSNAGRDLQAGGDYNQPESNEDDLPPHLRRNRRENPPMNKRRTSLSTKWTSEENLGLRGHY

[7] = molecular target: NAD-dependent protein deacylase sirtuin-5, mitochondrial (Homo sapiens, UniProt Q9NXA8); experiment: SIRT5 desuccinylase inhibitors, dose response, biochemical, fluorescence imaging, cherry-pick, set 5 (AID 720591);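 also: desuccinylation of succinyl peptide AMC substrate read as fluorescence after trypsin release; potency of inhibitors that lower fluorescence and may act on trypsin instead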
NAD-dependent protein deacylase sirtuin-5, mitochondrial, sequence (Q9NXA8 whole entry, the tested form may be a part): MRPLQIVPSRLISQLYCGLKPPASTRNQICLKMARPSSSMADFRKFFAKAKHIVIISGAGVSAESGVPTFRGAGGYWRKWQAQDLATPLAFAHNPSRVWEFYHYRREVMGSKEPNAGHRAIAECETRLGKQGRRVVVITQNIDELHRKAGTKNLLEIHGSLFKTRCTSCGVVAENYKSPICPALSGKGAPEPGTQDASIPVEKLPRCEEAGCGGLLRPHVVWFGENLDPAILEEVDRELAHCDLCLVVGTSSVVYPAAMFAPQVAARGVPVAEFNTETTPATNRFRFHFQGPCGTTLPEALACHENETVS

[8] = molecular target: T2, RNA-binding protein pos-1 (Caenorhabditis elegans, UniProt G5EF15); experiment: inhibitors of POS-1/mex-3 RNA binding, dose response, biochemical, fluorescence polarization (AID 1964);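 also: purified POS-1 fused to maltose binding protein made in E. coli; potency of compounds blocking POS-1 binding to fluorescent RNA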
T2 sequence (G5EF15 whole entry): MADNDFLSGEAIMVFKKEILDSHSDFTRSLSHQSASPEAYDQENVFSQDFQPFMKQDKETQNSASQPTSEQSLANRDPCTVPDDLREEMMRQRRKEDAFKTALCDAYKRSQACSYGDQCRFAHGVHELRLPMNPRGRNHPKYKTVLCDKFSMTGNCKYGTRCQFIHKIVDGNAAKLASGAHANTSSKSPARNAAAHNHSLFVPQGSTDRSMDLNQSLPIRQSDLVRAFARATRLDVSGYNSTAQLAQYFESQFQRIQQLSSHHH

[9] = inhibitors of intracellular T. cruzi replication, confirmation, NIH3T3 host cells, beta-gal luminescence (AID 2044); type: functional, cell-based;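 also: intracellular parasites grown in NIH/3T3 mouse fibroblasts as host cells; luminescent beta-galactosidase reporter signal from transgenic T. cruzi replicating inside host cells; inhibitors lower the luminescence signal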
[10] = cytotoxicity toward NIH3T3 fibroblasts, dose response, counter-screen, cell-based, ATP luminescence, mouse fibroblasts (AID 2010); type: functional;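 also: cells exposed to compound for about 90 hours before reading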
Fatty acid synthase [11] = molecular target: T3, Fatty acid synthase (Homo sapiens, UniProt P49327); experiment: FAS thioesterase domain inhibitors, dose response, biochemical, kinetic fluorescence intensity (AID 624326); type: functional;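 also: rate of fluorescence rise from hydrolysis of a fluorogenic O-methyl fluorescein ester substrate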
Fatty acid synthase [12] = molecular target: T3, Fatty acid synthase; experiment: FAS thioesterase domain inhibitors, dose response, biochemical, endpoint fluorescence intensity, uHTS hits (AID 624327); type: functional;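 also: fluorescence from hydrolysis of an O-methyl fluorescein acyl ester substrate by the enzyme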
[13] = molecular target: T4, Eukaryotic translation initiation factor 2-alpha kinase 3 (Homo sapiens, UniProt Q9NZJ5); experiment: Dose response cell-based high-throughput screening assay to measure PERK inhibition. [Related pubchem assays: 1416 ]; type: functional
T4 sequence (Q9NZJ5 whole entry): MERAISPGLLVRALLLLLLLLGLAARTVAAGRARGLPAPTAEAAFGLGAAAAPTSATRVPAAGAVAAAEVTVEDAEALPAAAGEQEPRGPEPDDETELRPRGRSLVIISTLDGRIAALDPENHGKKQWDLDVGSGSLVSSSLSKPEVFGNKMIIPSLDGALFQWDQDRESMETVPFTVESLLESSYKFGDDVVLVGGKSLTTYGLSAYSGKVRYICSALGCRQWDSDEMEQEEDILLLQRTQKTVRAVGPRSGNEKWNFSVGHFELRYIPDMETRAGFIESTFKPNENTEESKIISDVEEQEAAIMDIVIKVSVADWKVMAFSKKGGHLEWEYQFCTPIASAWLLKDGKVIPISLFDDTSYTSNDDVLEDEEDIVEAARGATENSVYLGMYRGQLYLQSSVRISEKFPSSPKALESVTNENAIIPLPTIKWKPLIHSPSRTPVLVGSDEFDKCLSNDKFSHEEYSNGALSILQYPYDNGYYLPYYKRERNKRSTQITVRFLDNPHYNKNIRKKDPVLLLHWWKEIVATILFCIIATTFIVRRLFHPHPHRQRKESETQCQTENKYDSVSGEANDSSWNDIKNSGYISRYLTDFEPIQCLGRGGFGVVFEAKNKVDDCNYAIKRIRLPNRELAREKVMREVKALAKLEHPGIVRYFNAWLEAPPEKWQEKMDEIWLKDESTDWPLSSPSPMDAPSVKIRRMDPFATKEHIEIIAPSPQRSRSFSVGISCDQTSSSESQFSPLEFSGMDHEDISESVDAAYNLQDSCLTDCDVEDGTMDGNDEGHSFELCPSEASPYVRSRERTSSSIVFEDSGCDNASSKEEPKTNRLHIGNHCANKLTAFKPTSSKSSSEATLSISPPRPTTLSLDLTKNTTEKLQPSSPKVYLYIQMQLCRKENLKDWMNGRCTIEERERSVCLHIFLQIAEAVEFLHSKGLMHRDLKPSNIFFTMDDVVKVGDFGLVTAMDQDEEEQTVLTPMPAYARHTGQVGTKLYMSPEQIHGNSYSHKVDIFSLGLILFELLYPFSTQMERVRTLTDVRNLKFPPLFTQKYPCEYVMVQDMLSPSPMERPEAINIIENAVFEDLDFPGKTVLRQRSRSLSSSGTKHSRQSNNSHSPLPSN

[14] = molecular target: T4, Eukaryotic translation initiation factor 2-alpha kinase 3; experiment: Counterscreen assay for PERK inhibitors: Dose response cell-based high throughput screening assay to measure inhibition of PERK at 6 hours. [Related pubchem assays: 1522, 1416 ]; type: functional
[15] = Luminescence Cell-Based Dose Confirmation to Identify Activators of 5'UTR Stem-Loop Driven Alpha-Synuclein mRNA Translation in H4 Neuroglioblastoma Cells. [Related pubchem assays: 1829 (Project Summary), 1814 (Primary HTS)]; type: functional
H4 = experiment: Luminescence Cell-Based Dose Response HTS to Identify Activators of 5'UTR Stem-Loop Driven Prion Protein mRNA Translation in H4 Neuroglioblastoma Cells. [Related pubchem assays: 1829 (Project Summary), 1814 (Primary HTS)]; type: functional; conditions: Homo sapiens
[16] = Luminescence Cell-Based Dose Response to Identify Activators of Luciferase Translation or Activity in H4-C Neuroglioblastoma Cells. [Related pubchem assays: 1829 (Project Summary), 1814 (Primary HTS)]; type: functional
[17] = Luminescence Cell-Based Dose Confirmation HTS to Identify Activators of 5'UTR Stem-Loop Driven Alpha-Synuclein mRNA Translation in H4 Neuroglioblastoma Cells. [Related pubchem assays: 1829 (Project Summary), 1814 (Primary HTS)]; type: functional
[18] = Luminescence Cell-Based Dose Response HTS to Identify Activators of Luciferase Translation or Activity in H4 […] Cells. [Related pubchem assays: 1829 (Project Summary), 1814 (Primary HTS)]; type: functional
HeLa = experiment: HeLa cell cytotoxicity, dose response, cytotoxicity control for MITF activator project, CellTiter-Glo luminescence, cherry-pick samples (AID 540259); type: functional, cell-based; conditions: Homo sapiens
[19] = Luminescence Cell-Based Dose Response to Identify Activators of 5'UTR Stem-Loop Driven Prion Protein mRNA Translation in H4-C Neuroglioblastoma Cells. [Related pubchem assays: 1829 (Project Summary), 1814 (Primary HTS)]; type: functional
[20] = molecular target: T5, DNA repair protein RAD52 homolog (Homo sapiens, UniProt P43351); type: functional, biochemical
T5 sequence (P43351 whole entry): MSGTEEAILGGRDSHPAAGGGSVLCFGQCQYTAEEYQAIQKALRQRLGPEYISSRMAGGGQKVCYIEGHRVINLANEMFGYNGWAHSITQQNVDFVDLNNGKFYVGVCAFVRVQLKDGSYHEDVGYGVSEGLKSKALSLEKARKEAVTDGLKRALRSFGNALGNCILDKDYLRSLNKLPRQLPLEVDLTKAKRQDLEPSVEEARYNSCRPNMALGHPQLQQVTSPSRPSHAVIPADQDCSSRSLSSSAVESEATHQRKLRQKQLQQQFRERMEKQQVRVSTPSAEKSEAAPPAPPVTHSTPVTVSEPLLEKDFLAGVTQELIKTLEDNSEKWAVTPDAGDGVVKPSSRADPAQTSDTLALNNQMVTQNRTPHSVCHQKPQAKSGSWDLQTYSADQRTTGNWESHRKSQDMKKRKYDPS

[21] = C. albicans growth with fluconazole, confirmation, fluorescence, retest (AID 2467); type: functional, cell-based
[22] = NIH-3T3 fibroblast cytotoxicity, dose response, cytotoxicity control, cell-based, fluorescence, Alamar Blue, secondary assay (AID 2327); type: functional;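 also: NIH-3T3 mouse fibroblasts cultured with fluconazole at 8 µg/mL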
[23] = molecular target: T6, COUP transcription factor 2 (Homo sapiens, UniProt P24468); experiment: Luminescence-based cell-based high throughput dose response assay to identify inhibitors of COUP-TFII (NR2F2).; type: functional;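 also: HEK293 cells transiently cotransfected with COUP-TFII expression vector and reporter; luciferase reporter luminescence driven by COUP-TFII from the pX2-168 reporter plasmid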
T6 sequence (P24468 whole entry): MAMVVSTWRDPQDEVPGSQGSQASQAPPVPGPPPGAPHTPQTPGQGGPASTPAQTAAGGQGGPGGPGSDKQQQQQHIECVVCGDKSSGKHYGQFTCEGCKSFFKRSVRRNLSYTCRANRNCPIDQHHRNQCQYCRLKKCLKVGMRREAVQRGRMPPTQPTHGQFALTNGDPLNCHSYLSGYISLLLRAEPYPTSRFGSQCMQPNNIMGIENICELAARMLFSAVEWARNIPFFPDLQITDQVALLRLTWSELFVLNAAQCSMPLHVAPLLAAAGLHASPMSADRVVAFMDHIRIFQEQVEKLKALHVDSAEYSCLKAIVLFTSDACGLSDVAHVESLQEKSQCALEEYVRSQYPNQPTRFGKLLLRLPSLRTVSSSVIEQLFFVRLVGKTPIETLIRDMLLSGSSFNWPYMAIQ

INS1 = experiment: beta cell apoptosis inhibitors, cytokine rescue, dose response, luminescence, retest (AID 449756); type: functional, cell-based; conditions: Rattus norvegicus;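 also: cell death triggered by IL-1 beta plus TNF-alpha plus IFN-gamma mixture; protective hits raise ATP signal compared with cytokine alone wells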

Albumin, sequence (P02769 whole entry): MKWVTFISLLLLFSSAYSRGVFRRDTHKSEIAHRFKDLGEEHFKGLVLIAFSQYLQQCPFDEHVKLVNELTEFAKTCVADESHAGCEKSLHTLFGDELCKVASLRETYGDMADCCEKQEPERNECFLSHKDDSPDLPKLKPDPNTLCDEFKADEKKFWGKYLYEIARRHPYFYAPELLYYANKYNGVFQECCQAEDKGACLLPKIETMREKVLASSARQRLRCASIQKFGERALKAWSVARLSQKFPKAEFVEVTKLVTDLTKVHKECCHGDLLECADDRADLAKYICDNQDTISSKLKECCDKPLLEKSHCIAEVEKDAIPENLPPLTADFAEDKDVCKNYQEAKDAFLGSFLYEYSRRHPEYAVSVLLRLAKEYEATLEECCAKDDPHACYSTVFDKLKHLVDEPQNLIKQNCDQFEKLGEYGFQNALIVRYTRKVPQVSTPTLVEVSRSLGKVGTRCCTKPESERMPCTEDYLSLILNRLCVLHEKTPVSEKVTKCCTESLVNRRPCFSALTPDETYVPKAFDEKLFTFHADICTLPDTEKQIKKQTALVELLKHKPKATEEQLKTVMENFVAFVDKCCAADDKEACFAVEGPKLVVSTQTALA

CN(C)S(=O)(=O)c1cccc(NC(=O)COC(=O)c2cc(-c3cccc(Br)c3)nc3ccccc23)c1
IC50 (Albumin): > 94.1 µM (inactive)
EC50 [1]: 21.1 µM (not active)
EC50 [2]: 19.1 µM (not active)
EC50 [3]: 18.1 µM (not active)

O=C(O)c1cc(O)c2c(c1)C(=O)c1cccc(O)c1C2=O [RHEIN]
EC50 [4]: 19.8 µM (active)
EC50 [5]: 5.19 µM (active)
EC50 [6]: 21.6 µM (active)
AC50 [7]: > 30 µM (inactive)
EC50 [8]: 29.2 µM (active)

Cc1ccc(OCc2nnc(SCC(=O)c3ccccc3)n2Cc2ccco2)cc1
EC50 [4]: > 20 µM (not active)
EC50 [5]: > 20 µM (not active)

O=C(NCCCCc1ccccc1)c1cc([N+](=O)[O-])cc([N+](=O)[O-])c1
EC50 [9]: < 0.1 µM (active)
EC50 [10]: > 60 µM (not active)
IC50 (Fatty acid synthase [11]): 8 µM (active)
IC50 (Fatty acid synthase [12]): 12.4 µM (active)
EC50 (cells): 0.258 µM (active)

Cc1nnc(SCC(=O)NC2CCCC2)s1
EC50 [13]: > 55.7 µM (not active)
EC50 [14]: > 55.7 µM (not active)

COc1cccc(N(C(=O)c2nc3nccc(C)n3n2)c2nc3ccccc3s2)c1
EC50 [15]: 0.464 µM (active)
EC50 (H4): 0.166 µM (active)
EC50 [16]: 0.338 µM (active)
EC50 [17]: 0.122 µM (active)
EC50 [18]: 0.192 µM (active)
AC50 (HeLa): 43.5 µM (active)
EC50 [19]: 0.248 µM (active)

CC1=CC(=Cc2sc3ccccc3[n+]2C)C=C(C)O1.[O-][Cl+3]([O-])([O-])[O-]
AC50 [20]: 5.78 µM (active)
EC50 [9]: < 0.1 µM (active)
EC50 [10]: 32.3 µM (active)
EC50 [21]: 0.491 µM (active)
EC50 [22]: > 160 µM (inactive)
EC50 (cells): 0.009 µM (active)
IC50 [23]: 8.76 µM (active)

Cn1nc([N+](=O)[O-])nc1Sc1cccc2cccnc12
EC50 [9]: < 0.1 µM (active)
EC50 [10]: > 60 µM (not active)
EC50 (cells): 0.115 µM (active)
AC50 (INS1): 2.59 µM (active)

COc1ccccc1C(=O)C1CCCN(C(=O)CSc2ccccn2)C1 (stereo unspecified)
EC50 [1]: > 79.4 µM (not active)
EC50 [2]: > 79.4 µM (not active)
EC50 [3]: > 79.4 µM (not active)

COc1ccc2c(COC(=O)c3[nH]nc4ccccc34)cc(=O)oc2c1
EC50 [15]: 0.352 µM (active)
EC50 (H4): 0.409 µM (active)
EC50 [16]: 0.684 µM (active)
EC50 [18]: < 0.1 µM (inconclusive)
EC50 [19]: 0.752 µM (active)

COc1ccc(C(=O)Cc2ccccc2)cc1OC
EC50 [13]: > 55.7 µM (not active)
EC50 [14]: > 55.7 µM (not active)
